system: HT-29 cells; test: Necrosis assay: TNF-α/Smac mimetic/z-VAD induced necrosis, cell viability by CellTiter-Glo; type: cell-based; settings: Homo sapiens, inhibition of necrosis, ATP levels, range given in uM, read-out: EC50 (necrosis activity)
Method: HT-29 cells were cultured in McCoy's 5A culture medium (Invitrogen). On day one, HT-29 cells were plated in 96-well assay plates at density of 2,500-3,500 cells per well. On day two, necrosis were induced by adding 20 ng/ml TNF-α (T), 100 nM Smac mimetic (S), and […] z-VAD (Z). At the same time, […] compound from a chemical library of ˜200,000 compounds was delivered into each well. After 24 hrs treatment, cell viability was determined by measuring ATP level using the CellTiter-Glo Luminescent Cell Viability Assay kit. A CellTiter-Glo Assay (Promega) was performed according to the manufacturer's instructions Luminescence was recorded with a PerkinElmer EnSpire Multimode Plate Reader. Survived cells were normalized to those cells treated with DMSO. Nec-1 was used as a positive control for screening necrosis inhibitors. Data are represented as mean±standard deviation of duplicates.
Dose-dependent inhibition of necrosis by compound #9 and the derivative compounds in HT-29 cells were determined by measuring ATP levels as described above.

Row | Structure (SMILES) | EC50 [µM]
1 | CC(C)(C)S(=O)(=O)N1CC[C@H]1c1ccccc1 [Compound S8, (S)-1-(tert-butylsulfonyl)-2-phenylazetidine] | 1 to 100
2 | CCC(C)(C)C(=O)N1CCCCC1c1ccccc1 (stereo not drawn) [Compound 11, 2,2-dimethyl-1-(2-phenylpiperidin-1-yl)butan-1-one] | 1 to 100
3 | CCC(C)(C)C(=O)N1COC[C@@H]1c1ccccc1 [Compound 7, (S)-2,2-dimethyl-1-(4-phenyloxazolidin-3-yl)butan-1-one] | 1 to 100
4 | CCS(=O)(=O)N1CC[C@H]1c1ccccc1 [Compound S6, (S)-1-(ethylsulfonyl)-2-phenylazetidine] | 1 to 100
5 | CC(C)(C)[S+]([O-])N1CC[C@H]1c1ccccc1 (stereo partly drawn) [Compound S7, (2S)-1-(tert-butylsulfinyl)-2-phenylazetidine] | 1 to 10
6 | CCC(C)(C)C(=O)N1CCN(C(C)=O)CC1c1ccccc1 (stereo not drawn) [Compound 18, 1-(4-acetyl-2-phenylpiperazin-1-yl)-2,2-dimethylbutan-1-one] | 1 to 100
7 | O=C1C[C@@H](c2ccccc2)N1C(=O)C1C2CC3CC(C2)CC1C3 (stereo partly drawn) [Compound 47, (S)-1-(adamantane-2-carbonyl)-4-phenylazetidin-2-one] | 1 to 10
8 | CCC(C)(C)C(=O)N1CC1c1ccccc1 (stereo not drawn) [Compound 1, 2,2-dimethyl-1-(2-phenylaziridin-1-yl)butan-1-one] | 1 to 100
9 | C#CCN1C(=O)C[C@H]1c1ccccc1 [Compound 49, (S)-4-phenyl-1-(prop-2-ynyl)azetidin-2-one] | 1 to 100
10 | CC(=O)N1C(=O)OC[C@H]1c1ccccc1 [Compound 39, (R)-3-acetyl-4-phenyloxazolidin-2-one] | 1 to 10
11 | CCC(C)(C)C(=O)N1C(=O)CCC1c1ccccc1 (stereo not drawn) [Compound 29, 1-(2,2-dimethylbutanoyl)-5-phenylpyrrolidin-2-one] | 1 to 100
12 | CCC(C)(C)C(=O)N1CC(O)C1c1ccccc1 (stereo not drawn) [Compound 16, 1-(3-hydroxy-2-phenylazetidin-1-yl)-2,2-dimethylbutan-1-one] | 1 to 10
13 | CCN1C(=O)OC[C@H]1c1ccccc1 [Compound 51, (R)-3-ethyl-4-phenyloxazolidin-2-one] | 1 to 100
14 | CC(F)(F)C(C)(C)C(=O)N1CCC=C[C@H]1C1CCCCC1 [Compound S13] | 1 to 100
15 | O=C(N1CCCC1c1cccc(F)c1)C12CC3CC(CC(C3)C1)C2 (stereo not drawn) [Compound 37, adamantan-1-yl(2-(3-fluorophenyl)pyrrolidin-1-yl)methanone] | 1 to 100

same assay, conditions: inhibition of necrosis, ATP levels, range given in nM, read-out: EC50 (necrosis activity)

Row | Structure (SMILES) | EC50 [µM]
16 | CCC(C)(C)C(=O)N1CC(F)(F)C1c1ccccc1 (stereo not drawn) [Compound 14, 1-(3,3-difluoro-2-phenylazetidin-1-yl)-2,2-dimethylbutan-1-one] | 0.001 to 1
17 | CCC(C)(C)C(=O)N1C(=O)CC1c1cccc(Br)c1 (stereo not drawn) [Compound 26, 4-(3-bromophenyl)-1-(2,2-dimethylbutanoyl)azetidin-2-one] | 0.001 to 1
18 | CCC(C)(C)C(=O)N1NCCC1c1ccccc1 (stereo not drawn) [Compound 21, 2,2-dimethyl-1-(5-phenylpyrazolidin-1-yl)butan-1-one] | 0.001 to 1
19 | CCC(C)(C)C(=O)N1C(=O)OC[C@H]1c1ccccc1 [Compound 23, (R)-3-(2,2-dimethylbutanoyl)-4-phenyloxazolidin-2-one] | 0.001 to 1

same assay, conditions: inhibition of necrosis, ATP levels, range given in uM, read-out: EC50 (necrosis activity)

Row | Structure (SMILES) | EC50 [µM]
20 | C=CC(C)(C)C(=O)N1CCC=C[C@H]1C1CCCCC1 [Compound 54] | 1 to 1000
21 | CCC(C)(C)C(=O)N1CC=C[C@H]1c1ccccc1 [Compound 72] | 1 to 1000
22 | C=CC(C)(C)C(=O)N1C=CC=CC1c1ccccc1 (stereo not drawn) [Compound 58] | 1 to 1000
23 | CCC(C)(C)C(=O)N1CCC1c1cccc(F)c1 (stereo not drawn) [Compound 71] | 1 to 1000
24 | CCC(C)(C)C(=O)N1CCC1c1ncc(C)s1 (stereo not drawn) [Compound 65] | 1 to 1000
25 | C=CC(C)(C)C(=O)N1CCC1c1ccco1 (stereo not drawn) [Compound 64] | 1 to 1000
26 | CCC(C)(C)C(=O)N1C=CC=CC1C1CCCCC1 (stereo not drawn) [Compound 56] | 1 to 1000
27 | CCC(C)(C)C(=O)N1OCCC1c1ccccc1 (stereo not drawn) [Compound 76] | 1 to 1000

— patent US10092529B2, “Necrosis inhibitors” (National Institute of Biological Sciences, Beijing, priority 2014, dated 2018)
